Results as given in patent US12653191B2, “Active compound combinations” (Bayer Aktiengesellschaft, priority 2020, dated 2026).
Read-outs that look alike come from different tables or passages of the source.

Legend:
Alternaria alternate = experiment: in vitro-Test with fungal microorganisms, Method A (tables A1-A12); format: cell-based, Alternaria alternata; settings: Alternaria, applied alone, 20 ppm; read-out: Efficacy %
Procedure, shortened: (§1)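 Readout: extinction at 620 nm, measured at start and again 3-5 days later, giving efficacy versus untreated control (0% = control growth, 100% = no growth). Compounds were evaporated from methanol/emulsifier before adding potato dextrose medium with fungal spores or mycelium; incubation 20° C, 85% RH.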

Alternaria alternata = experiment: in vitro-Test with fungal microorganisms, Method B (tables A13-A22); format: cell-based; settings: Alternaria alternata, single compound, 0.2 ppm; read-out: Efficacy
Procedure, shortened: (§2)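 Efficacy scale: 0% means growth equal to the untreated control, 100% means none detected. Compounds are dried from methanol with emulsifier before adding inoculated growth medium; incubation at 20° C., 85% relative humidity for 3 to 7 days precedes photometric inhibition readout.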

Botrytis cinerea = experiment: in vitro-Test with fungal microorganisms, Method A (tables B1-B14); format: cell-based; settings: Botrytis cinerea
Procedure, shortened: as §1

Cercospora beticola [1] = experiment: in vitro-Test with fungal microorganisms, Method A (tables C1-C10); format: cell-based; settings: Cercospora beticola, read-out: Efficacy %
Procedure, shortened: as §1

Cercospora beticola [2] = experiment: in vitro-Test with fungal microorganisms, Method B (tables C11-C20); format: cell-based; settings: Cercospora beticola, single compound, read-out: Efficacy %
Procedure, shortened: as §2

[3] = test system: Colletotrichum lindemuthianum; experiment: in vitro-Test with fungal microorganisms, Method A (tables D1-D8); format: cell-based; settings: Colletotrichum lindemuthianum, read-out: Efficacy %
Procedure, shortened: as §1

Cordana musae [4] = experiment: in vitro-Test with fungal microorganisms, Method A (tables E1-E8); format: cell-based; settings: Neocordana musae, read-out: Efficacy %
Procedure, shortened: as §1

Cordana musae [5] = experiment: in vitro-Test with fungal microorganisms, Method B (tables E9-E16); format: cell-based; settings: Neocordana musae, single active, read-out: Efficacy
Procedure, shortened: as §2

Diaporthe citri = experiment: in vitro-Test with fungal microorganisms, Method A (tables F1-F11); format: cell-based; settings: Diaporthe citri, read-out: Efficacy
Procedure, shortened: as §1

Fusarium culmorum [6] = experiment: in vitro-Test with fungal microorganisms, Method A (tables G1-G4); format: cell-based; settings: Fusarium culmorum, alone, read-out: Efficacy
Procedure, shortened: as §1

Fusarium culmorum [7] = experiment: in vitro-Test with fungal microorganisms, Method B (tables G5-G15); format: cell-based; settings: Fusarium culmorum, single active compound, read-out: Efficacy
Procedure, shortened: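 Cpd in MeOH + alkylaryl-polyglycol-ether, solvent evaporated; liquid medium + fungal spores/mycelium added; OD600 read; 3–7 d, 20° C., 85% RH; growth inhibition by photometry, % efficacy vs untreated ctrl.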

Parastagonospora nodorum = experiment: in vitro-Test with fungal microorganisms, Method B (tables H5-H8); format: cell-based; settings: Parastagonospora nodorum, 0.04 ppm; read-out: Efficacy
Protocol: Example: In Vitro-Test with Fungal Microorganisms
Wells of 96-well microtiter plates are filled with 30 μl of a preparation of test compound or compound combination in methanol+emulsifier alkylaryl-polyglycol-ether. Thereafter, the solvent is evaporated in a hood. At the next step, 200 μl of liquid growth medium is given, that has been amended with an appropriate concentration of spores or mycelium suspension of the test fungus.
With the aid of a photometer, the extinction in all wells is measured at the wavelength of 600 nm.
The microtiter plates are incubated for 3 to 7 days at 20° C. and 85% relative humidity. After the incubation inhibition of growth is determined photometrically. Efficacy is calculated in relation to the untreated control, 0% efficacy means fungal growth as high as in untreated control while 100% efficacy means no fungal growth is measured.
The data in tables A1 to A12, B1 to B14, C1 to C10, D1 to D8, E1 to E8, F1 to F11, G1 to G4, H1 to H4 and I1 to I5 were collected according to Method A. The data in tables A13 to A22, B15 to B18, C11 to C20, E9 to E16, F12 to F15, G5 to G15, H5 to H8, I6 to I11 and J1 to J11 were collected according to Method B.

[8] = test system: Ustilago segetum var. avenae; experiment: in vitro-Test with fungal microorganisms, Method A (tables I1-I5); format: cell-based; settings: alone, 0.8 ppm; read-out: Efficacy %
Procedure, shortened: as §1

[9] = test system: Ustilago segetum var. avenae; experiment: in vitro-Test with fungal microorganisms, Method B (tables I6-I11); format: cell-based; settings: 1 ppm; read-out: Efficacy %
Procedure, shortened: as §2

Colletotrichum coccodes = experiment: in vitro-Test with fungal microorganisms, Method B (tables J1-J11); format: cell-based; settings: Colletotrichum coccodes, read-out: Efficacy %
Procedure, shortened: as §2

`O=C1C2CC=CCC2C(=O)N1SC(Cl)(Cl)Cl` (stereo not drawn) [(5.003) captan, captan] gave an inhibition of growth at 20 ppm (Alternaria alternate) of 56%, an inhibition of growth at 0.2 ppm (Alternaria alternata) of 0% and an inhibition of growth at 0.8 ppm (Botrytis cinerea; read-out: Efficacy) of 0%. It also gave an inhibition of growth at 4 ppm (Botrytis cinerea; 4.0 ppm, read-out: Efficacy) of 0%, an inhibition of growth at 20 ppm (Botrytis cinerea; read-out: Efficacy) of 7% and an inhibition of growth at 0.8 ppm (Botrytis cinerea; alone, read-out: Efficacy %) of 0%. For the same molecule, the inhibition of growth at 20 ppm (Botrytis cinerea; alone, read-out: Efficacy %) was 100%, the inhibition of growth at 0.8 ppm (Cercospora beticola [1]; 0.8 ppm alone) was 0% and the inhibition of growth at 0.8 ppm (Cercospora beticola [1]; 0.8 ppm) was 0%. The inhibition of growth at 4 ppm (Cercospora beticola [1]; 4.0 ppm) was 100%, the inhibition of growth at 20 ppm (Cercospora beticola [1]; 20.0 ppm) was 100% and the inhibition of growth at 0.04 ppm (Cercospora beticola [2]; 0.04 ppm) was 0%. For the same molecule, the inhibition of growth at 0.4 ppm (Cercospora beticola [2]; 0.4 ppm) was 0%, the inhibition of growth at 5 ppm (Cercospora beticola [2]; 5 ppm) was 100% and the inhibition of growth at 0.8 ppm ([3]; mixing partner alone, 0.8 ppm) was 3%. The inhibition of growth at 4 ppm ([3]; mixing partner alone, 4.0 ppm) was 100%, the inhibition of growth at 20 ppm ([3]; mixing partner alone, 20.0 ppm) was 100% and the inhibition of growth at 0.8 ppm ([3]; single active at 0.8 ppm) was 0%. The inhibition of growth at 4 ppm ([3]; single active at 4.0 ppm) was 100%, the inhibition of growth at 20 ppm ([3]; single active at 20.0 ppm) was 100% and the inhibition of growth at 4 ppm (Cordana musae [4]; mixing partner alone) was 0%. For the same molecule, the inhibition of growth at 4 ppm (Cordana musae [4]; single substance) was 100%, the inhibition of growth at 20 ppm (Cordana musae [4]; single substance, 20.0 ppm) was 100% and the inhibition of growth at 0.04 ppm (Cordana musae [5]; 0.04 ppm) was 0%. It also gave an inhibition of growth at 1 ppm (Cordana musae [5]; 1 ppm) of 0%, an inhibition of growth at 5 ppm (Cordana musae [5]; 5 ppm) of 100% and an inhibition of growth at 0.8 ppm (Diaporthe citri; Table F10, 0.8 ppm alone) of 18%. For the same molecule, the inhibition of growth at 4 ppm (Diaporthe citri; Table F10, 4.0 ppm alone) was 100%, the inhibition of growth at 20 ppm (Diaporthe citri; Table F10, 20.0 ppm alone) was 100% and the inhibition of growth at 0.8 ppm (Diaporthe citri; applied alone, 0.8 ppm) was 9%. For the same molecule, the inhibition of growth at 4 ppm (Diaporthe citri; applied alone, 4.0 ppm) was 99%, the inhibition of growth at 0.8 ppm (Diaporthe citri; single active, 0.8 ppm) was 24% and the inhibition of growth at 4 ppm (Diaporthe citri; single active, 4.0 ppm) was 88%. For the same molecule, the inhibition of growth at 0.8 ppm (Fusarium culmorum [6]; 0.8 ppm) was 0%, the inhibition of growth at 4 ppm (Fusarium culmorum [6]; 4.0 ppm) was 100% and the inhibition of growth at 20 ppm (Fusarium culmorum [6]; 20.0 ppm) was 100%. It also gave an inhibition of growth at 0.04 ppm (Fusarium culmorum [7]; 0.04 ppm) of 0%, an inhibition of growth at 0.2 ppm (Fusarium culmorum [7]; 0.2 ppm) of 16% and an inhibition of growth at 1 ppm (Fusarium culmorum [7]; 1 ppm) of 18%. It also gave an inhibition of growth at 5 ppm (Fusarium culmorum [7]; 5 ppm) of 100%, an inhibition of growth at 0.04 ppm (Parastagonospora nodorum) of 0% and an inhibition of growth at 0.8 ppm [8] of 0%. For the same molecule, the inhibition of growth at 1 ppm [9] was 28%, the inhibition of growth at 0.2 ppm (Colletotrichum coccodes; 0.2 ppm) was 0% and the inhibition of growth at 0.04 ppm (Colletotrichum coccodes; single active compound at 0.04 ppm) was 53%. The inhibition of growth at 0.2 ppm (Colletotrichum coccodes; single active compound at 0.2 ppm) was 0%, the inhibition of growth at 1 ppm (Colletotrichum coccodes; single active compound at 1 ppm) was 0% and the inhibition of growth at 5 ppm (Colletotrichum coccodes; single active compound at 5 ppm) was 100%.
